From paper PMC9321663, “The DevTox Germ Layer Reporter Platform: An Assay Adaptation of the Human Pluripotent Stem Cell Test” (Toxics, 2022)
Where two headings read alike, the source gives them in different places.

Legend:
[1] = test system: SOX2 (ectoderm and pluripotency marker) in RUES2-GLR cells; test: DevTox GLR-Endo assay: increase in percent SOX2-positive cells (AEID 3095, Sox2_up); conditions: for MAX_MEAN: tcpl plot AEID3095, maximum mean response; for MAX_MED: tcpl plot AEID3095, maximum median response;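 on all read-outs here: cells exposed to test chemicals for 48 h in total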
Procedure: RUES2-GLR cells were seeded 24 h prior to differentiation initiation into vitronectin-coated 384-well CellCarrier Ultra plates (10.6 mm^2/well) (Perkin Elmer, Waltham, MA, USA). Vitronectin (0.5 µg/cm^2)-coated plates were prepared and stored at 4 °C, wrapped in parafilm, for less than seven days and incubated at room temperature for one hour prior to cell seeding. […] Cells were dispensed into 20 µL coating solution using a Certus FLEX Micro Dispenser (Fritz Gyger, Gwatt, Switzerland) with a 0.45 µm valve to a final volume of 100 µL and density of 2.8 × 10^3 cells per well.
Following a 24 h post-seeding incubation period (Time = 0 h) (Figure 3A), directed endoderm differentiation was initiated with the PSC Definitive Endoderm Induction kit (Gibco, Waltham, MA, USA). […] A target dilution series (0.002–200 µM) was generated by dispensing variable nanoliter volumes of test chemical and backfilling with a complementary volume of DMSO using Echo Cherry Pick software (v.1.6.2). Wells were backfilled with 50 µL of induction medium using a Certus FLEX Micro Dispenser with 0.45 µm valves. Test compound treatment plates were mixed on a Multi-Microplate Genie mixer at 700 rpm for 10 min and subsequently incubated for two hours in a humidified atmosphere at 37 °C with 5% CO2. Each chemical treatment (0 h–Medium A; 24 h–Medium B) were prepared the day of treatment. At 0 h, cell culture medium was aspirated from the assay plate at a rate of 1 µL/s and 40 µL of Medium A ± test chemical applied using a CyBio FeliX automated liquid handler (Analytik Jena, Jena, Germany). At 24 h, conditioned cell culture medium was aspirated and 40 µL of Medium B ± test chemical was applied. At 48 h, cells were prepared for high-content image acquisition by fixation and nuclear staining. The total test chemical incubation period was 48 h. For fixation, a 4% paraformaldehyde (PFA) solution was achieved by adding 40 µL of 8% PFA directly to cell culture medium using a CyBio FeliX liquid handler. […] Following an additional 30 min incubation period at room temperature, staining solution was aspirated, 50 µL of DPBS was added, and plate sealed with MicroAmp Optical Adhesive Film (Applied Biosystems, Waltham, MA, USA).
Images were acquired within 12 h post-fixation using an Opera Phenix High-Content Screening System (Perkin Elmer, Waltham, MA, USA). […] Cell identification and mean biomarker fluorescent intensities were calculated using Harmony image analysis software (Perkin Elmer, Waltham, MA, USA). Cell nuclei were identified using the object classifying algorithm C of the software with border objects excluded using the “Remove Border Objects” feature. Mean cell biomarker intensity statistics were gathered from each object and exported for further analysis using a custom script in Python version 3.7.4 [61] […] For each plate, pluripotent-negative control wells were used to establish baseline intensity values and a cutoff threshold for determining SOX17 and BRA biomarker-positive cells. Endoderm differentiated positive control wells were used to establish baseline intensity values and a cutoff threshold for SOX2-positive cells. Cells with a mean intensity five times the baseline median absolute deviation (5*bmad) above the median cell intensity for plate-based control population technical replicates were considered positive. Well-based cell counts, reflected by the sum of total counted objects from all fields, were used to calculate the percent responders for each respective biomarker and evaluate cytotoxicity. Well-level results were exported for data modeling in the ToxCast Pipeline.
The ToxCast Pipeline R package (tcpl v.2.0.2) was used to normalize, fit, and qualify concentration-response screening data [63].

[2] = test system: SOX17 (endoderm marker) in RUES2-GLR cells; test: DevTox GLR-Endo assay: increase in percent SOX17-positive cells (AEID 3093, Sox17_up); assay type: cell-based, human; conditions: for Emax: Homo sapiens; for HIT−CALL: tcpl plot AEID3093, COFF 20.3
Procedure: (§1) The total test chemical incubation period was 48 h.
(§2) (Supplementary Materials).

[3] = cited from earlier work; for Development Toxicant Classification: Table S2; for Classification: developmental toxicant classification (Teratogen / Non-Teratogen) of reference and training chemicals, ref DOI per chemical: 10.1093/toxsci/kft239, 10.1093/toxsci/kfaa014, 10.1177/026119290203000204, 10.1038/s41598-020-59542-x; for DT Class.: developmental toxicant classification, chemicals common with quickPredict; for Developmental Toxicant Classification: reference chemicals
[4] = test system: RUES2-GLR cells; test: DevTox GLR-Endo assay: decrease in total cell count, cytotoxicity (AEID 3098, CellCount_dn); conditions: for Emax: Homo sapiens, read-out: Cell Count % Max Inhibition; for effect on cell counts (in words): reference chemical testing, increasing concentrations
Procedure: as §1
(§3) Assay plate controls included non-differentiated pluripotent cells maintained in complete Essential 8 Flex medium (baseline control), endoderm differentiated cells (differentiation control), endoderm differentiated cells treated with DMSO (0.2%) (solvent control), and TGF-ß receptor inhibitor SB431542 (1 µM)-treated cells (developmental toxicant-positive control) (Figure S3). All experiments were completed with a minimum of four biological replicates (n = 4).
as §2

[5] = test system: SOX17 (endoderm marker) in RUES2-GLR cells; test: DevTox GLR-Endo assay: decrease in percent SOX17-positive cells (AEID 3094, Sox17_dn); conditions: for Emax / AC50 / IC50: Homo sapiens; for AC50: read-out: ga (winning model), tcpl plot AEID3094, gain parameter of winning curve fit (log concentration, µM axis), hit calls only (converted); for effect on SOX17-positive cells (in words): 48 h exposure during directed endoderm differentiation; for IC50: 48 h; for % Max Inhibition: maximum inhibition of SOX17-positive cells, reference chemical testing
Procedure: as §1, §3, §2

[6] = test system: BRA (mesoderm marker) in RUES2-GLR cells; test: DevTox GLR-Endo assay: increase in percent BRA-positive cells (AEID 3096, Bra_up); assay type: cell-based, human; conditions: for HIT−CALL: tcpl plot AEID3096, COFF 0.774; for MAX_MEAN: tcpl plot AEID3096, maximum mean response; for MAX_MED: tcpl plot AEID3096, maximum median response
Procedure: as §1, §2

[7] = tcpl plot AEID3093, maximum mean response, read-out: MAX_MEAN
[8] = tcpl plot AEID3093, maximum median response, read-out: MAX_MED
[9] = read-out: DevTox % Max Inhibition
[10] = Table S2, SOX17-positive cells, cutoff 3*bmad
[11] = Table S2, percent SOX17-positive cells, 48 h exposure
[12] = DevTox GLR-Endo prediction against developmental toxicant classification
[13] = read-out: maximum observed effect level class (% max inhibition)

SMILES | MAX_MEAN [1] [Percent Activity] | MAX_MED [1] [Percent Activity] | Emax [2, 7] [%] | Emax [2, 8] [%] | HIT−CALL [2] | Development Toxicant Classification [3] | Classification [3] | DT Class. [3] | Emax [4] [%] | Cell Count ACC ([4]; human, 48 h) [µM] | Emax [5, 9] [%] | Emax ([5]; read-out: MAX_MEAN) [%] | Emax ([5]; read-out: MAX_MED) [%] | AC50 [5] [µM] | Hit Call [5, 10] | DevTox ACC [5, 11] [µM] | HIT−CALL ([5]; tcpl plot AEID3094, COFF 20.3) | HIT−CALL [6] | MAX_MEAN [6] [Percent Activity] | MAX_MED [6] [Percent Activity] | also measured
O=C1NC(=O)C(c2ccccc2)(c2ccccc2)N1 | 0.502 | 0.532 | 11.2 | 11.7 | 0 | Positive | Teratogen | Pos | 22.6 | 191.824 | 21 | 19.1 | 21 | 191 | Positive | 201.562 | 1 | 0 | 0.943 | 0.909 | DevTox-GLR Endo CC ([4]; human, 48 h): 191.82 µM; Emax ([5]; read-out: tp (winning model)): 32.6%; DevTox-GLR Endo ACC ([5]; activity concentration at cutoff, SOX17-positive cells, 48 h exposure): 201.56 µM
CCCc1cc(=O)[nH]c(=S)[nH]1 | 0.595 | 0.601 | 7.44 | 8.97 | 0 |  | Teratogen | Pos | 12.9 | >200 | 16.6 | 14.7 | 16.6 |  | Negative | >200 | 0 | 1 | 0.944 | 0.969 | hit call designation (in words) [5, 12]: false negative; Emax [5, 13]: 0 to 20%
OB(O)O [Boric acid] | 0.45 | 0.453 |  |  | 0 |  | Teratogen | Pos |  |  |  |  |  |  | Negative | >200 | 0 | 0 | 0.818 | 0.83 | MAX_MEAN ([2]; tcpl plot AEID3093, maximum mean response): 7.53 Percent Activity; MAX_MED ([2]; tcpl plot AEID3093, maximum median response): 7.06 Percent Activity; Cell Count % Max Inhibition ([4]; Table S2, cell count relative to DMSO): 12.3286%; hit call designation (in words) [5, 12]: false negative; DevTox % Max Inhibition ([5]; Table S2, percent SOX17-positive cells relative to DMSO): 16.7249%; maximum observed effect level class (% max inhibition) ([5]; stratification of training set chemicals): weak (weak (0–20% max inhibition)); MAX_MEAN ([5]; tcpl plot AEID3094, maximum mean response): 15.7 Percent Activity; MAX_MED ([5]; tcpl plot AEID3094, maximum median response): 16.7 Percent Activity
CC1=C2C[C@H]3[C@@H](CC=C4C[C@@H](O)CC[C@@]43C)[C@@H]2CC[C@]12O[C@@H]1C[C@H](C)CN[C@H]1[C@H]2C [Cyclopamine] | 5.31 | 0.885 |  |  | 0 | Positive | Teratogen | Pos | 9.2 |  | 22.7 | 34.8 | 22.7 |  | Negative | >200 | 0 | 1 | 4.76 | 1.9 | HIT−CALL [1]: 0; Emax ([2]; read-out: MAX_MEAN): 3.34%; Emax ([2]; read-out: MAX_MED): 3.36%; Cell Count ACC ([4]; Table S2, 48 h exposure): >200 µM; hit call designation (in words) [5, 12]: borderline calls; Emax [5, 13]: 20 to 80%
O=P1(N(CCCl)CCCl)NCCCO1 (stereo not shown) [Cyclophosphamide] | 0.952 | 0.491 |  |  | 0 | Positive | Teratogen | Pos | 25.6 |  | 7.49 | 6.4 | 7.49 |  |  |  |  | 0 | 0.871 | 0.897 | Emax ([2]; read-out: MAX_MEAN): 8.69%; Emax ([2]; read-out: MAX_MED): 8.98%; Cell Count ACC ([4]; human): 100.193 µM; DevTox-GLR Endo CC ([4]; human): 100.19 µM; effect on cell count (in words) ([4]; human): significant cell loss that did not impact SOX17-positive populations; DevTox ACC [5]: >200 µM; HIT−CALL [5]: 0; Hit Call [5]: Negative; hit call designation (in words) [5]: false negative; Emax [5, 13]: 0 to 20%
NNC(=O)c1ccncc1 [Isoniazid] | 0.685 | 0.538 | 14 | 13.9 | 0 | Negative | Non-Teratogen | Neg | 7.42 | >200 | 3.99 | 3.77 | 3.99 |  | Negative | >200 | 0 | 0 | 0.794 | 0.781 | 
Nc1cccc2c1CN(C1CCC(=O)NC1=O)C2=O (stereo not shown) [Lenalidomide] | 0.674 | 0.697 | 10.3 | 9.38 | 0 | Positive | Teratogen |  | 44.2 |  | 78.9 | 78.8 | 78.9 | 0.337 | Positive | 0.05026 | 1 | 0 | 0.843 | 0.842 | Developmental Toxicant Classification [3]: Positive; Cell Count ACC ([4]; Table S2, 48 h exposure): 0.1174 µM; effect on cell counts (in words) [4]: cell counts remained constant; effect on SOX17-positive cells (in words) [5]: significant reductions in the SOX17-positive sub-population; IC50 [5]: 130 nM; Emax ([5]; read-out: tp (winning model)): 79.2%; % Max Inhibition ([5]; 48 h exposure): 44%
Nc1cccc2c1C(=O)N(C1CCC(=O)NC1=O)C2=O (stereo not shown) [Pomalidomide] | 62.1 | 67.4 | 8.72 | 7.3 | 0 | Positive | Teratogen |  | 37.2 |  | 95.9 | 95.3 | 95.9 | 0.0661 | Positive | 0.01911 | 1 | 0 | 0.865 | 0.894 | AC50 ([1]; Homo sapiens, read-out: ga (winning model)): 148000 nM; Emax ([1]; Homo sapiens, read-out: tp (winning model)): 88.9%; Developmental Toxicant Classification [3]: Positive; Cell Count ACC ([4]; Table S2, 48 h exposure): 0.27 µM; effect on cell counts (in words) [4]: cell counts remained constant; effect on SOX17-positive cells (in words) [5]: significant reductions in the SOX17-positive sub-population; IC50 [5]: 50 nM; Emax ([5]; read-out: tp (winning model)): 94%; % Max Inhibition ([5]; 48 h exposure): 81%
